Test results reported in patent US9738634B2, “Heterocyclic amide compound and herbicide” (SYNGENTA PARTICIPATIONS AG, priority 2013, dated 2017).

Tests used:
Type in all cases: in vivo
[1] = test system: wheat; assay: Test Example 3: soil treatment, effect on crop; e: wheat; conditions: soil treatment, treatment dosage 320 g/ha
Procedure, shortened: (§1)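 Crop and weed responses were judged three weeks after a uniform surface spray of the water-diluted emulsion at the given g/ha rate. Seeds sat beneath about 1.5 cm of sterilized diluvial soil, and boxes stood in a greenhouse at 25 to 30° C.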

[2] = test system: beet; assay: Test Example 3: soil treatment, effect on crop; f: beet; conditions: soil treatment, treatment dosage 320 g/ha
Procedure, shortened: as §1

[3] = test system: black-grass; assay: Test Example 3: weedkilling efficacy through soil treatment; H: black-grass; conditions: soil treatment, treatment dosage 320 g/ha
Procedure, shortened: as §1

[4] = test system: oval-leafed pondweed; assay: Test Example 2: weedkilling efficacy, growth period weed treatment in the submerged state; C: oval-leafed pondweed; conditions: treatment dosage 320 g/ha
Procedure, shortened: (§2)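 Weeds treated at the 1-2 leaf stage by application of diluted emulsion onto floodwater (4 cm depth, alluvial soil) at specified g/ha. Grown in greenhouse at 25 to 30° C; herbicidal effect rated three weeks after treatment.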

[5] = test system: barnyard grass; assay: Test Example 2: weedkilling efficacy, growth period weed treatment in the submerged state; A: barnyard grass; conditions: treatment dosage 320 g/ha
Procedure, shortened: as §2

[6] = test system: crabgrass; assay: Test Example 3: weedkilling efficacy through soil treatment; D: crabgrass; conditions: soil treatment, treatment dosage 320 g/ha
Procedure, shortened: as §1

[7] = test system: fig-leafed goosefoot; assay: Test Example 3: weedkilling efficacy through soil treatment; M: fig-leafed goosefoot; conditions: soil treatment, treatment dosage 320 g/ha
Procedure, shortened: as §1

[8] = test system: rapeseed; assay: Test Example 3: soil treatment, effect on crop; g: rapeseed; conditions: soil treatment, treatment dosage 320 g/ha
Procedure, shortened: as §1

[9] = test system: green foxtail; assay: Test Example 3: weedkilling efficacy through soil treatment; E: green foxtail; conditions: soil treatment, treatment dosage 320 g/ha
Procedure, shortened: as §1

[10] = test system: bulrush; assay: Test Example 1: weedkilling efficacy, preemergent weed treatment in the submerged state; B: bulrush; conditions: treatment dosage 320 g/ha
Procedure, shortened: (§3)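 Pots of alluvial soil were flooded to a 4 cm depth. Mixed weed seeds were sown and 2.5 leaf-stage rice seedlings transplanted. On sowing day, water-diluted emulsion was applied to the water surface (dose in g/ha). After 3 weeks at 25–30 °C, effects were rated.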

[11] = test system: oval-leafed pondweed; assay: Test Example 1: weedkilling efficacy, preemergent weed treatment in the submerged state; C: oval-leafed pondweed; conditions: treatment dosage 320 g/ha
Procedure, shortened: as §3

[12] = test system: chickweed; assay: Test Example 3: weedkilling efficacy through soil treatment; N: chickweed; conditions: soil treatment, treatment dosage 320 g/ha
Procedure, shortened: as §1

[13] = test system: Italian ryegrass; assay: Test Example 3: weedkilling efficacy through soil treatment; I: Italian ryegrass; conditions: soil treatment, treatment dosage 320 g/ha
Procedure, shortened: as §1

[14] = test system: soybean; assay: Test Example 3: soil treatment, effect on crop; d: soybean; conditions: soil treatment, treatment dosage 320 g/ha
Procedure, shortened: as §1

[15] = test system: transplanted rice; assay: Test Example 1: preemergent weed treatment in the submerged state, effect on crop; a: transplanted rice; conditions: treatment dosage 320 g/ha
Procedure, shortened: as §3

[16] = test system: barnyard grass; assay: Test Example 3: weedkilling efficacy through soil treatment; F: barnyard grass; conditions: soil treatment, treatment dosage 320 g/ha
Excerpt: Weedkilling Efficacy Test Through Soil Treatment
Sterilized diluvial soil was introduced into 21 cm long, 13 cm wide, 7 cm deep plastic boxes, and seeds of crabgrass, green foxtail, barnyard grass, wild oat, black-grass, Italian ryegrass, common wind-grass, Indian mallow, redroot pigweed, fig-leafed goosefoot, chickweed, catchweed, birds-eye speedwell, corn, soybean, rice, wheat, beet and rapeseed were each spot-sown, and covered with about 1.5 cm of soil. Next, emulsions of compounds of the present invention prepared according to compounding example 2 were diluted with water to give the specified dosages, and applied uniformly onto the soil surface with a small sprayer. The plants were grown by placing the plastic boxes in a greenhouse at 25 to 30° C., and 3 weeks after the pesticide treatment the effect on each type of plant was investigated on the basis of the assessment criteria of test example 1.
A: barnyard grass, B: bulrush, C: oval-leafed pondweed, D: crabgrass, E: green foxtail, F: barnyard grass, G: wild oat, H: black-grass, I: Italian ryegrass, J: common wind-grass, K: Indian mallow, L: redroot pigweed, M: fig-leafed goosefoot, N: chickweed, O: catchweed, p: birds-eye speedwell, a: transplanted rice, b: directly sown rice, c: corn, d: soybean, e: wheat, f: beet, g: rapeseed
Further, pesticide dosage (g/ha) indicates the concentration regulated such that treatment was with only the stated number of grams (g), when calculated per hectare (ha).

[17] = test system: wild oat; assay: Test Example 3: weedkilling efficacy through soil treatment; G: wild oat; conditions: soil treatment, treatment dosage 320 g/ha
Procedure, shortened: as §1

[18] = test system: corn; assay: Test Example 3: soil treatment, effect on crop; c: corn; conditions: soil treatment, treatment dosage 320 g/ha
Procedure, shortened: as §1

[19] = test system: redroot pigweed; assay: Test Example 3: weedkilling efficacy through soil treatment; L: redroot pigweed; conditions: soil treatment, treatment dosage 320 g/ha
Procedure, shortened: as §1

[20] = test system: birds-eye speedwell; assay: Test Example 3: weedkilling efficacy through soil treatment; p: birds-eye speedwell; conditions: soil treatment, treatment dosage 320 g/ha
Procedure, shortened: as §1

[21] = test system: barnyard grass; assay: Test Example 1: weedkilling efficacy, preemergent weed treatment in the submerged state; A: barnyard grass; conditions: treatment dosage 320 g/ha
Procedure, shortened: as §3

[22] = test system: Indian mallow; assay: Test Example 3: weedkilling efficacy through soil treatment; K: Indian mallow; conditions: soil treatment, treatment dosage 320 g/ha
Procedure, shortened: as §1

[23] = test system: common wind-grass; assay: Test Example 3: weedkilling efficacy through soil treatment; J: common wind-grass; conditions: soil treatment, treatment dosage 320 g/ha
Procedure, shortened: as §1

[24] = test system: directly sown rice; assay: Test Example 3: soil treatment, effect on crop; b: directly sown rice; conditions: soil treatment, treatment dosage 320 g/ha
Procedure, shortened: as §1

[25] = test system: bulrush; assay: Test Example 2: weedkilling efficacy, growth period weed treatment in the submerged state; B: bulrush; conditions: treatment dosage 320 g/ha
Procedure, shortened: as §2

CC(C)(C(=O)Nc1cc(I)ccn1)N1COCN(c2ccccc2)C1=O [A-2-10]
e: wheat, effect on crop grade [1]: 0 (weed kill ratio 5% or less (practically no effect))
f: beet, effect on crop grade [2]: 3 (weed kill ratio 40% or more, less than 70%)
H: black-grass, weedkilling efficacy grade [3]: 5 (weed kill ratio 90% or more, (practically complete withering))
C (oval-leafed pondweed) weedkilling efficacy grade [4]: 5 (weed kill ratio 90% or more, (practically complete withering))
A (barnyard grass) weedkilling efficacy grade [5]: 5 (weed kill ratio 90% or more, (practically complete withering))
D: crabgrass, weedkilling efficacy grade [6]: 5 (weed kill ratio 90% or more, (practically complete withering))
M: fig-leafed goosefoot, weedkilling efficacy grade [7]: 4 (weed kill ratio 70% or more, less than 90%)
g: rapeseed, effect on crop grade [8]: 3 (weed kill ratio 40% or more, less than 70%)
E: green foxtail, weedkilling efficacy grade [9]: 5 (weed kill ratio 90% or more, (practically complete withering))
B: bulrush, weed kill grade [10]: 5 (weed kill ratio 90% or more, (practically complete withering))
C: oval-leafed pondweed, weed kill grade [11]: 5 (weed kill ratio 90% or more, (practically complete withering))
N: chickweed, weedkilling efficacy grade [12]: 3 (weed kill ratio 40% or more, less than 70%)
I: Italian ryegrass, weedkilling efficacy grade [13]: 5 (weed kill ratio 90% or more, (practically complete withering))
d: soybean, effect on crop grade [14]: 0 (weed kill ratio 5% or less (practically no effect))
a: transplanted rice, effect on crop grade [15]: 1 (weed kill ratio 5% or more, less than 20%)
F: barnyard grass, weedkilling efficacy grade [16]: 5 (weed kill ratio 90% or more, (practically complete withering))
G: wild oat, weedkilling efficacy grade [17]: 2 (weed kill ratio 20% or more, less than 40%)
c: corn, effect on crop grade [18]: 0 (weed kill ratio 5% or less (practically no effect))
L: redroot pigweed, weedkilling efficacy grade [19]: 1 (weed kill ratio 5% or more, less than 20%)
P: birds-eye speedwell, weedkilling efficacy grade [20]: 4 (weed kill ratio 70% or more, less than 90%)
A: barnyard grass, weed kill grade [21]: 5 (weed kill ratio 90% or more, (practically complete withering))
K: Indian mallow, weedkilling efficacy grade [22]: 0 (weed kill ratio 5% or less (practically no effect))
J: common wind-grass, weedkilling efficacy grade [23]: 5 (weed kill ratio 90% or more, (practically complete withering))
b: directly sown rice, effect on crop grade [24]: 4 (weed kill ratio 70% or more, less than 90%)
B (bulrush) weedkilling efficacy grade [25]: 5 (weed kill ratio 90% or more, (practically complete withering))

Cc1cc(Cl)nc(NC(=O)C(C)(C)N2COCN(c3ccccc3)C2=O)c1 [A-2-26]
e: wheat, effect on crop grade [1]: 3 (weed kill ratio 40% or more, less than 70%)
f: beet, effect on crop grade [2]: 3 (weed kill ratio 40% or more, less than 70%)
H: black-grass, weedkilling efficacy grade [3]: 5 (weed kill ratio 90% or more, (practically complete withering))
C (oval-leafed pondweed) weedkilling efficacy grade [4]: 5 (weed kill ratio 90% or more, (practically complete withering))
A (barnyard grass) weedkilling efficacy grade [5]: 5 (weed kill ratio 90% or more, (practically complete withering))
D: crabgrass, weedkilling efficacy grade [6]: 5 (weed kill ratio 90% or more, (practically complete withering))
M: fig-leafed goosefoot, weedkilling efficacy grade [7]: 4 (weed kill ratio 70% or more, less than 90%)
g: rapeseed, effect on crop grade [8]: 4 (weed kill ratio 70% or more, less than 90%)
E: green foxtail, weedkilling efficacy grade [9]: 5 (weed kill ratio 90% or more, (practically complete withering))
B: bulrush, weed kill grade [10]: 5 (weed kill ratio 90% or more, (practically complete withering))
C: oval-leafed pondweed, weed kill grade [11]: 5 (weed kill ratio 90% or more, (practically complete withering))
N: chickweed, weedkilling efficacy grade [12]: 3 (weed kill ratio 40% or more, less than 70%)
I: Italian ryegrass, weedkilling efficacy grade [13]: 5 (weed kill ratio 90% or more, (practically complete withering))
d: soybean, effect on crop grade [14]: 2 (weed kill ratio 20% or more, less than 40%)
a: transplanted rice, effect on crop grade [15]: 4 (weed kill ratio 70% or more, less than 90%)
F: barnyard grass, weedkilling efficacy grade [16]: 5 (weed kill ratio 90% or more, (practically complete withering))
G: wild oat, weedkilling efficacy grade [17]: 5 (weed kill ratio 90% or more, (practically complete withering))
c: corn, effect on crop grade [18]: 0 (weed kill ratio 5% or less (practically no effect))
L: redroot pigweed, weedkilling efficacy grade [19]: 2 (weed kill ratio 20% or more, less than 40%)
P: birds-eye speedwell, weedkilling efficacy grade [20]: 5 (weed kill ratio 90% or more, (practically complete withering))
A: barnyard grass, weed kill grade [21]: 5 (weed kill ratio 90% or more, (practically complete withering))
K: Indian mallow, weedkilling efficacy grade [22]: 0 (weed kill ratio 5% or less (practically no effect))
J: common wind-grass, weedkilling efficacy grade [23]: 5 (weed kill ratio 90% or more, (practically complete withering))
b: directly sown rice, effect on crop grade [24]: 5 (weed kill ratio 90% or more, (practically complete withering))
B (bulrush) weedkilling efficacy grade [25]: 5 (weed kill ratio 90% or more, (practically complete withering))
